# Numbered stars: 1 amine (or outer) side, 2 acyl side, 3 side chain; on linkers, the order of the positions; unused ones are H or OH. Side chains are listed from the residue outwards. Peptide text beside a SMILES is read from it. * marks the point of attachment. γGlu = O=C(O)[C@H](CCC(=O)[*:2])N[*:1]; Palmitoyl = CCCCCCCCCCCCCCCC(=O)*
# What was measured:
# Format in all cases: cell-based, human
# [1] = tested on: PI3K/Akt signaling pathway in SH-SY5Y cells; experiment: Western blotting of PI3K/Akt signaling pathway after 8 min incubation; settings: 1 × 10^-5 M, 37 °C, vs control cells (medium alone), normalized to GAPDH, n = 3, triplicates
# Procedure: Figure 1 Prolactin-releasing peptide 31 (PrRP31) and palm^11-PrRP31 increased phosphoinositide-3 kinase (PI3K/Akt) signaling pathway in SH-SY5Y cells. Immunoblots: (a) and their quantifications: (b). SH-SY5Y cells were incubated either with PrRP31 and its palmitoylated analog and scrambled at a final concentration 1 × 10^-5 M, or with insulin at the final concentration 1 × 10^−7 M at 37 °C for 8 min, or medium alone (control). Activation was expressed as the ratio of the activated protein to the total amount of the protein, both normalized to loading control, glyceraldehyde 3-phosphate dehydrogenase (GAPDH). Data are presented as the means ± SEM as a percentage of control cells analyzed by one-way ANOVA followed by the Dunnett post hoc test, * p < 0.5, ** p < 0.01, **** p < 0.0001 (n = 3, each sample in triplicates).
# (§1) For the investigation of the molecular mechanism of PrRP31 and its analog in the cells, signaling pathways were studied by Western blotting (WB). The cells were cultured in 6-well plates at a density of 800,000 cells per well. Growth medium was exchanged for serum-free DMEM 16 h before an experiment, and then, the cells were incubated with PrRP31, palm^11-PrRP31, or scrambled peptide at a final concentration of 1 × 10^−5 M or insulin at a concentration of 1 × 10^−7 M at 37 °C for 8 min. The cells were rapidly cooled on ice and lysed in 400 µl of Laemmli sample buffer (62.5 mM Tris-HCl with pH 6.8, 2% SDS, 10% glycerol, 0.01% bromophenol blue, 5% mercaptoethanol, 50 mM NaF, and 1 mM Na3VO4) and stored at −20 °C. Afterward, the cell lysates were analyzed by WB. SDS-electrophoresis and WB were carried out using a Criterion system with a 26-well 4−15% Criterion^TM TGX^TM Precast Midi Protein Gel (Bio-Rad, Hercules, CA, USA) at a constant voltage of 200 V or 100 V, respectively.
# (§2) Subsequently, the membranes were incubated overnight with primary antibody (Ab) at 4 °C, according to the manufacturer´s instructions (Table 2). The next day, the membranes were incubated with an HRP-linked secondary antibody for 1 h at room temperature. Chemiluminescence was visualized with a ChemiDoc^TM System (Bio-Rad). Band intensities were normalized using glyceraldehyde 3-phosphate dehydrogenase (GAPDH) as an internal loading control.
# (§3) Eight minutes of incubation was performed in a series of experiments with different exposure times (5, 10, 15, 30, and 60 min) to PrRP31 and its palmitoylated analog. Activation of analogs was strongest after 10 min. Then, the cells were treated with inhibitors of signaling pathways for 2 min, and analogs were added for 8 min. The time of exposure was set to 8 min to ensure that the incubation time for PrRP31 and its palmitoylated analog was the same. The controls and compounds were tested in triplicate in three independent experiments. The PI3K/Akt pathway is one of the main signaling pathways of insulin; therefore, insulin was used as a positive control. Scrambled peptide was used as a negative control. Activation is expressed as the ratio of the activated protein to the total amount of the protein. GAPDH was used as a loading control.
# [2] = tested on: p-m-Tor, p-GSK-3β, p-ERK, p-CREB in SH-SY5Y cells; experiment: Western blotting with selective inhibitors of signaling pathways; settings: insulin 1 × 10^−7 M, 37 °C, 8 min; for p-CREB after incubation with peptide, no inhibitor / p-ERK after incubation with peptide, no inhibitor / p-m-Tor (Ser2448) after application of peptide, no inhibitor: PrRP31 and palm^11-PrRP31 1 × 10^−5 M
# Procedure: Immunoblots with PrRP31 and palm^11-PrRP31: (a) and insulin: (b) and their quantifications: (c). SH-SY5Y cells were incubated firstly with selective inhibitors for 2 min and then either with PrRP31 and its palmitoylated analog at a final concentration 1 × 10^−5 M, or with insulin in the final concentration 1 × 10^−7 M at 37 °C for 8 min, or alone in serum-free medium. Activated protein was normalized to loading control, GAPDH. Data are presented as the means ± SEM as a percentage of control cells treated with medium alone. Analysis is made between groups as shown in the graph by a Student’s t-test, * p < 0.5, ** p < 0.01, *** p < 0.001(each sample in triplicates).
# as §3
# For further research, inhibitors of signaling pathways were used. The growth medium was exchanged for serum-free DMEM 16 h before the experiment. On the day of the experiment, cells were incubated for 2 min with rapamycin, SB216736 or U0126 at a final concentration of 1 × 10^−6 M; then, PrRP31, palm^11-PrRP31 or scrambled peptide at a final concentration of 1 × 10^−5 M or insulin at a concentration of 1 × 10^−7 M was added for 8 min. The plates were stored at 37 °C. The controls and compounds were tested in triplicate.
# [3] = tested on: ERK-CREB signaling pathway in SH-SY5Y cells; experiment: Western blotting of ERK-CREB signaling pathway after 8 min incubation; settings: 1 × 10^−5 M, 37 °C, vs control cells (medium alone), normalized to GAPDH, n = 3, triplicates
# Procedure: Figure 2 PrRP31 and palm^11-PrRP31 increased phosphorylation of extracellular signal-regulated kinase/cAMP response element-binding protein (ERK-CREB) signaling pathway in SH-SY5Y cells. Immunoblots: (a) and their quantifications: (b). SH-SY5Y cells were incubated either with PrRP31 and its palmitoylated analog and scrambled at a final concentration 1 × 10^−5 M, or with insulin at the final concentration 1 × 10^−7 M at 37 °C for 8 min, or medium alone. Activation was expressed as the ratio of the activated protein to the total amount of the protein, both normalized to loading control, GAPDH. Data are presented as the means ± SEM as a percentage of control cells treated with medium alone analyzed by one-way ANOVA followed by the Dunnett post hoc test, * p < 0.5, ** p < 0.01, **** p < 0.0001 (n = 3, each sample in triplicates).
# as §1, §2
# Eight minutes of incubation was performed in a series of experiments with different exposure times (5, 10, 15, 30, and 60 min) to PrRP31 and its palmitoylated analog. Activation of analogs was strongest after 10 min. Then, the cells were treated with inhibitors of signaling pathways for 2 min, and analogs were added for 8 min. […] Activation is expressed as the ratio of the activated protein to the total amount of the protein. […]
# [4] = normalized to GAPDH, triplicates
compound,measurement,setting,value
CC[C@H](C)[C@H](NC(=O)CNC(=O)[C@H](CCCNC(=N)N)NC(=O)[C@H](CO)NC(=O)[C@H](C)NC(=O)[C@H](Cc1ccc(O)cc1)NC(=O)[C@H](Cc1c[nH]c2ccccc12)NC(=O)[C@H](C)NC(=O)[C@@H]1CCCN1C(=O)[C@H](CC(N)=O)NC(=O)[C@@H](NC(=O)[C@H](CC(=O)O)NC(=O)[C@@H]1CCCN1C(=O)[C@@H](NC(=O)[C@H](CCCNC(=N)N)NC(=O)[C@@H](NC(=O)[C@H](CCC(=O)O)NC(=O)[C@H](CCSC)NC(=O)[C@H](CO)NC(=O)[C@H](Cc1c[nH]cn1)NC(=O)[C@H](CCCNC(=N)N)NC(=O)[C@H](Cc1c[nH]cn1)NC(=O)[C@@H](NC(=O)[C@H](CCCNC(=N)N)NC(=O)[C@@H](N)CO)[C@@H](C)O)[C@@H](C)CC)[C@@H](C)O)[C@@H](C)CC)C(=O)N[C@@H](CCCNC(=N)N)C(=O)N1CCC[C@H]1C(=O)N[C@H](C(=O)NCC(=O)N[C@@H](CCCNC(=N)N)C(=O)N[C@@H](Cc1ccccc1)C(N)=O)C(C)C [PrRP31],increase of the level of p-Akt (Ser473)/Akt,[1],53%
same,increase of the level of p-GSK3β (inhibitory Ser9)/GSK3β,[1],41%
same,increase of the level of p-m-Tor (Ser2448)/m-Tor,[1],22%
same,"p-CREB after incubation with peptide, no inhibitor",[2],increased
same,"p-ERK after incubation with peptide, no inhibitor",[2],increased
same,"p-m-Tor (Ser2448) after application of peptide, no inhibitor",[2]; [4],significantly increased
same,increase of p-CREB (Ser133)/CREB,[3],68%
same,increase of p-ERK (Thr 202/Tyr204)/ERK,[3],36%
CCCCCCCCCCCCCCCC(=O)N[C@@H](CCC(=O)NCCCC[C@H](NC(=O)[C@@H](NC(=O)[C@H](CCC(=O)O)NC(=O)[C@H](CCSC)NC(=O)[C@H](CO)NC(=O)[C@H](Cc1c[nH]cn1)NC(=O)[C@H](CCCNC(=N)N)NC(=O)[C@H](Cc1c[nH]cn1)NC(=O)[C@@H](NC(=O)[C@H](CCCNC(=N)N)NC(=O)[C@@H](N)CO)[C@@H](C)O)[C@@H](C)CC)C(=O)N[C@H](C(=O)N1CCC[C@H]1C(=O)N[C@@H](CC(=O)O)C(=O)N[C@H](C(=O)N[C@@H](CC(N)=O)C(=O)N1CCC[C@H]1C(=O)N[C@@H](C)C(=O)N[C@@H](Cc1c[nH]c2ccccc12)C(=O)N[C@@H](Cc1ccc(O)cc1)C(=O)N[C@@H](C)C(=O)N[C@@H](CO)C(=O)N[C@@H](CCCNC(=N)N)C(=O)NCC(=O)N[C@H](C(=O)N[C@@H](CCCNC(=N)N)C(=O)N1CCC[C@H]1C(=O)N[C@H](C(=O)NCC(=O)N[C@@H](CCCNC(=N)N)C(=O)N[C@@H](Cc1ccccc1)C(N)=O)C(C)C)[C@@H](C)CC)[C@@H](C)CC)[C@@H](C)O)C(=O)O [palm^11-PrRP31] (H-SRTHRHSMEIK([γGlu-Palmitoyl])TPDINPAWYASRGIRPVGRF-NH2; N-terminus assumed),increase of the level of p-Akt (Ser473)/Akt,[1],48%
same,increase of the level of p-Akt (Thr308)/Akt,[1],36%
same,increase of the level of p-GSK3β (inhibitory Ser9)/GSK3β,[1],85%
same,increase of the level of p-PDK1 (Ser241)/PDK1,[1],20%
same,increase of the level of p-m-Tor (Ser2448)/m-Tor,[1],22%
same,"p-CREB after incubation with peptide, no inhibitor",[2],increased
same,"p-ERK after incubation with peptide, no inhibitor",[2],increased
same,"p-m-Tor (Ser2448) after application of peptide, no inhibitor",[2]; [4],significantly increased
same,"p-GSK-3β (Ser9) after incubation with peptide, no inhibitor","[2]; palm^11-PrRP31 1 × 10^−5 M, normalized to GAPDH, triplicates",slight increase
same,increase of p-CREB (Ser133)/CREB,[3],238%
same,increase of p-ERK (Thr 202/Tyr204)/ERK,[3],74%
